According to patent US9045443B2, “Nitric oxide donor neprilysin inhibitors” (Theravance Biopharma R&D IP, LLC, priority 2012, dated 2015):

target: T1, human NEP (Homo sapiens, UniProt P08473); assay: In vitro enzyme inhibition assay at human NEP (Assay 1); format: biochemical; conditions: recombinant human NEP, fluorogenic peptide substrate 10 μM, 37° C.; values may be affected by hydrolysis in the assay conditions, approximations; read-out: pKi at human NEP (converted)
T1 construct: purchased R&D Systems, Minneapolis, Minn; 1182-ZN
Method: The inhibitory activities of compounds at human and rat neprilysin (EC 3.4.24.11; NEP) and human angiotensin converting enzyme (ACE) were determined using in vitro assays as described below.
Recombinant human NEP and recombinant human ACE were obtained commercially (R&D Systems, Minneapolis, Minn., catalog numbers 1182-ZN and 929-ZN, respectively). The fluorogenic peptide substrate Mca-D-Arg-Arg-Leu-Dap-(Dnp)-OH (Medeiros et al. (1997) Braz. J. Med. Biol. Res. 30:1157-62; Anaspec, San Jose, Calif.) and Abz-Phe-Arg-Lys(Dnp)-Pro-OH (Araujo et al. (2000) Biochemistry 39:8519-8525; Bachem, Torrance, Calif.) were used in the NEP and ACE assays respectively.
The assays were performed in 384-well white opaque plates at 37° C. using the fluorogenic peptide substrates at a concentration of 10 μM in Assay Buffer (NEP: 50 mM HEPES, pH 7.5, 100 mM NaCl, 0.01% polyethylene glycol sorbitan monolaurate (Tween-20), 10 μM ZnSO4; ACE: 50 mM HEPES, pH 7.5, 100 mM NaCl, 0.01% Tween-20, 1 μM ZnSO4).
Test compounds were assayed over the range of concentrations from […] to 20 μM. Test compounds were added to the enzymes and incubated for 30 minute at 37° C. prior to initiating the reaction by the addition of substrate. Reactions were terminated after 20 minutes of incubation at 37° C. by the addition of glacial acetic acid to a final concentration of 3.6% (v/v).
Plates were read on a fluorometer with excitation and emission wavelengths set to 320 nm and 405 nm, respectively Inhibition constants were obtained by nonlinear regression of the data using the equation (GraphPad Software, Inc., San Diego, Calif.): v=v0/[1+(I/K′)] where v is the reaction rate, v0 is the uninhibited reaction rate, I is the inhibitor concentration and K′ is the apparent inhibition constant.
Compounds of the invention were tested in this assay and found to have pKi values at human NEP as follows, noting however, that these values may be affected by hydrolysis in the assay conditions and are therefore approximations of activity.

T1 sequence (P08473 52-750 limits assumed): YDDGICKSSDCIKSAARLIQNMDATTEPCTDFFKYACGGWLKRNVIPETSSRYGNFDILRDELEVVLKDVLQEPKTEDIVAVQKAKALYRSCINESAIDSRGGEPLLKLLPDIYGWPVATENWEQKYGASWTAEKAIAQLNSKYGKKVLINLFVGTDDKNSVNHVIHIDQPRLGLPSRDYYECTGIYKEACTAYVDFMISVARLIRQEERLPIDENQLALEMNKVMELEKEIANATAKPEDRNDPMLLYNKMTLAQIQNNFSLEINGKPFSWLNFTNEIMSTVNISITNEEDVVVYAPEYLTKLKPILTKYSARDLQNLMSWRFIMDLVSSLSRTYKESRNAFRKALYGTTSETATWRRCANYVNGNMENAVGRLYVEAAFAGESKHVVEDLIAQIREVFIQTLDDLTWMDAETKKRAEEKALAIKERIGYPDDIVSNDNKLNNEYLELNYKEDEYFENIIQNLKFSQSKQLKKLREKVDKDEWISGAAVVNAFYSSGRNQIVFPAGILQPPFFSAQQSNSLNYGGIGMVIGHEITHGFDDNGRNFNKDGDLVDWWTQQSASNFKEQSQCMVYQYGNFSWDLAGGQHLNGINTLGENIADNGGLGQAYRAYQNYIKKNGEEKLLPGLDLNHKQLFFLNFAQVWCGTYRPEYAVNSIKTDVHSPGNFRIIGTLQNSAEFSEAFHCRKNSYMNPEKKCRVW

Ki | SMILES
316 to 1000 nM | O=C(O)C(=O)N[C@H](Cc1ccc(-c2ccccc2)cc1)C[C@@H](O)C(=O)OCCCCO[N+](=O)[O-] [Example 3, (2R,4R)-5-Biphenyl-4-yl-2-hydroxy-4-(oxalylamino)-pentanoic Acid 4-Nitrooxybutyl Ester]
31.6 to 100 nM | O=C(N[C@H](Cc1ccc(-c2ccccc2)cc1)C[C@@H](O)C(=O)OCCCCOc1no[n+]([O-])c1S(=O)(=O)c1ccccc1)c1cc(O)no1 [Example 2, (2R,4R)-5-Biphenyl-4-yl-2-hydroxy-4-[(3-hydroxyisoxazole-5-carbonyl)amino]pentanoic Acid 4-(4-Benzenesulfonyl-5-oxyfurazan-3-yloxy)butyl Ester]
316 to 1000 nM | O=C(O)C(=O)N[C@H](Cc1ccc(-c2ccccc2)cc1)C[C@@H](O)C(=O)OCCCCOc1no[n+]([O-])c1S(=O)(=O)c1ccccc1 [Example 4, (2R,4R)-5-Biphenyl-4-yl-2-hydroxy-4-(oxalylamino)-pentanoic Acid 4-(4-Benzenesulfonyl-5-oxyfurazan-3-yloxy)butyl Ester]

SMILES | Ki
O=C(N[C@H](Cc1ccc(-c2ccccc2)cc1)C[C@@H](O)C(=O)OCCCCO[N+](=O)[O-])c1cc(O)no1 [Example 1, (2R,4R)-5-Biphenyl-4-yl-2-hydroxy-4-[(3-hydroxyisoxazole-5-carbonyl)amino]pentanoic Acid 4-Nitrooxybutyl Ester] | 31.6 to 100 nM
